Drawing on PMC9301969 (ACS Omega, 2022), this text covers Kd for 1 compound.

The target of the test is human serum albumin (HSA, nonglycated) (Homo sapiens, UniProt P02768). In words: fluorescence polarization. The test is classed as binding. (Fluorescence polarisation rises when a labelled molecule tumbles more slowly, as on binding a larger partner.)
human serum albumin (HSA, nonglycated), sequence (P02768 25-609): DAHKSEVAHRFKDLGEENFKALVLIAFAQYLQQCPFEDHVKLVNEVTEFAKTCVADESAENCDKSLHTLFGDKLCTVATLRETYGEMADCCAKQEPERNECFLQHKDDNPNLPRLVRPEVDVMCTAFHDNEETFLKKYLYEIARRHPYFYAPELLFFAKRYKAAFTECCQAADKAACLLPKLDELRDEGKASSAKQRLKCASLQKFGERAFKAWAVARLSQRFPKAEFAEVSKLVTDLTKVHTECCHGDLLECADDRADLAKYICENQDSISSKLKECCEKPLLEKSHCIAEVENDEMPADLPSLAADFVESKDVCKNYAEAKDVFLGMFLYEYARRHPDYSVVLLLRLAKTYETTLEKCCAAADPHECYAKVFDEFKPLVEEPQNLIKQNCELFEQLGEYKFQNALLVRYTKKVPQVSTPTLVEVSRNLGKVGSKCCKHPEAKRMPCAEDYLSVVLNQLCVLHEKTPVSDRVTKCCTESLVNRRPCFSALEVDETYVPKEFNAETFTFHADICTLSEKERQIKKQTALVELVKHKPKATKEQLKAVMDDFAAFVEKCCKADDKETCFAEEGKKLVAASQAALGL

For orientation: Kd means the constant that tells how readily two partners part at equilibrium. A lower Kd goes with tighter binding. For `O=C(O)CCN(Cc1ccc(C(F)(F)F)cc1B(O)O)Cc1c2ccccc2c(CN(CCC(=O)O)Cc2ccc(C(F)(F)F)cc2B(O)O)c2ccccc12` [compound 8, 3,3′-((anthracene-9,10-diylbis(methylene))bis((2-borono-4-(trifluoromethyl)benzyl)azanediyl))dipropionic acid], binding was characterised by a dissociation constant (Kd) of 2000 nM.
